# According to US20060062793A1, “Modified antibodies to prostate-specific membrane antigen and uses thereof” (priority 2004, published 2006):
# Assays:
# [1] = system: PSMA-positive CWR22 xenografts; experiment: deJ591-DM1 efficacy in PSMA-positive CWR22 xenografts in scid mice; format: in vivo, mouse
# Description: (§1) Experiment: Male SCID mice were implanted by serial passage of CWR22 prostate tumor xenograft. […] All treatments were given intravenously. Tumor growth and animal health were continually monitored throughout the study with tumor growth measured every 3 days.
# Experiment: Male C.B-17 SCID mice bearing CWR22 xenografts approximately 200 mm^3 in size received IV injections (200 μL constant volume) of the test articles according to the dose and schedule as shown in Table 22.
# Male C.B-17 scid mice bearing CWR22 xenografts approximately 200 mm^3 in size received IV injections (200 μL constant volume) of the test articles according to the dose and schedule shown in the Table 23.
# The objective of this study was to determine how much the dosing interval could be increased at this dosage before a loss of efficacy in terms of TGD would be observed. […] The growth delays for the other schedules were: q7d, 53.0 days; q21d, 48.0 days; and q28d, 26.9 days. Similar to other studies using the CWR22 xenograft model, no curative responses were observed, with all tumors eventually resuming growth (FIG. 18).
# as §1, with “intravenously and on a schedule of every three days for 5 doses.” for “intravenously.”
# as §1, with “intravenously and on a schedule of every seven days for 5 doses.” for “intravenously.”
# [2] = system: LNCaP tumor sections; format: in vivo, mouse
# [3] = system: hormone-independent prostate cancer; experiment: Phase I trial of trace-labeled 131I-J591 (murine) in hormone-independent prostate cancer patients; format: in vivo, human
# Description: Hormone-independent patients with rising PSA levels and acceptable hematologic, hepatic and renal function received a single dose of murine mAb J591. Doses are escalated (from 0.5-300 mg) in groups of three to six patients. Each dose included ≦1.0 mg J591 labeled with 10 mCi ^131I iodine as a tracer plus “cold” mAb. The dose levels used ranged from 0.5 to 300.0 mg as follows: 0.5 mg, 1.0 mg, 2.0 mg, 5.0 mg, 10 mg, 25 mg, 50 mg, 100 mg, 125 mg, 150 mg, 200 mg, 250 mg, and 300 mg. Blood and urine were collected to monitor pharmacokinetics, toxicity and human anti-mouse antibody (HAMA) response. Patients were imaged on the day of injection (day 0), as well as days 2, 4 and 6 to track mAb targeting.
# [4] = system: PSMA-negative DU145 tumors; format: in vivo, mouse; settings: 4 days post injection, DU145 tumors (n=6)
# Description: (§2) Prior to use, the cells were trypsinized, counted and suspended in Matrigel (Collaborative Biomedical Products, Bedford, Mass.). Nu/Nu Balb C mice 8-10 weeks of age were inoculated, in the right and left flanks, with a suspension of 5×10^6 LNCaP cells in Matrigel (BD Biosciences, Bedford Mass.). After a period of 14-18 days, tumors (100-300 mg) had developed. The PSMA-negative DU145 and PC3 cells were implanted in nude mice in an identical manner.
# (§3) The PSMA-positive and PSMA-negative tumor bearing mice were injected, via the tail vein, with 80 KBq of the iodinated MAb (400 MBq/mg) in 200 μL of PBS (pH 7.4, 0.2% BSA). Groups of animals (3-8/group) were sacrificed after 2, 4 or 6 days. The major organs and tumors were recovered. The tissue samples were weighed and counted, with appropriate standards in an automatic NaI(Tl) counter. These measured relative activity data (cpm) were background corrected and expressed as a percentage of the injected dose per gram (% ID/g). […] J415, J591 and 7E11 were labeled with ^111In (100 MBq/mg). 80 KBq of the ^111In labeled MAbs were injected in groups of animals. The % ID/g in various organs and tumor tissues was determined at 2-6 days post injection in a similar way as described for ^131I labeled MAbs.
# (§4) The uptake in lungs, kidney, muscle was similar with all three antibodies.
# [5] = system: PSMA-negative PC3 tumors; format: in vivo, mouse; settings: 4 days post injection, PC3 tumors (n=10)
# Description: as §2, §3, §4
# [6] = system: PSMA-positive human LNCaP tumors; experiment: Biodistribution of 111In labeled MAbs in nude mice bearing LNCaP tumors; format: in vivo, mouse
# Description: as §2, §3
# [7] = system: androgen-independent PSMA-positive 22RV1 xenograft; experiment: deJ591-DM1 efficacy in castrate or intact scid mice bearing 22RV1 xenograft; format: in vivo, mouse
# Description: Prostate tumors can be broadly classified as either androgen-dependent or androgen-independent. […] The 22RV1 cell line was originally developed as androgen-independent and can be grown as a xenograft in C.B-17 scid mice that have been left either intact or castrated. […] This was approximately twice the time required for the tumors of intact mice to reach 1000 mm^3 (9.3 days). C.B-17 scid mice bearing CWR22 xenografts approximately 200 mm^3 in size received IV injections (200 μL constant volume) of the test articles according to the dosage and schedule shown in the Table 24.
# [8] = system: metastatic androgen-independent prostate cancer; experiment: Phase 1 ascending dose trial of DM1 conjugated deJ591 in metastatic androgen-independent prostate cancer; format: in vivo, human
# Description: Based upon emerging clinical safety and PK, repeat dosing at four week intervals was subsequently permitted.
# DLT is defined as the occurrence of one or more of the following: • Hematologic: Grade 4 thrombocytopenia (platelet count <10,000/mm3) • Requirement for platelet transfusion and/or other methods to increase platelet count • Febrile neutropenia (ANC<1000/mm^3 concurrent with a temperature >38.5° C.). (Per the Infection/Febrile Neutropenia subsection of the NCI CTC version 2.0, febrile neutropenia is, by definition, a >Grade 3 toxicity) • Grade 4 neutropenia without fever of >7 days duration • Grade 3 neutropenia requiring granulocyte colony-stimulating factor (G-CSF) administration • Grade 4 anemia (hemoglobin <6.5 g/dL) • Grade 3 anemia (hemoglobin 6.5-<8.0 g/dL) in a subject receiving EpogenÒNon-hematologic • Any Grade 3 non-hematologic toxicity considered by the investigator to be possibly related to study drugMTD is defined as the highest dose level with an observed incidence of DLT in no more than 1 out of 6 subjects. […]
# The starting dose is 18 mg/m2. […] Dose escalation will continue until DLT and MTD are determined. […] Subsequent dose escalation and enrollment will be determined by the number and grade of toxicities observed in these two additional subjects. […] The previous dose level will be evaluated as potential MTD. […]
# [9] = system: LNCaP tumor; experiment: Gamma camera imaging of nude mice with 111In-DOTA-J591; format: in vivo, mouse; settings: days 1-6
# Description: For the imaging studies, animals were injected with 2 MBq of ^111In-DOTA-J591. On days 1, 2, 3, 4 and 6 post-injection, the mice were sedated with ketamine/xylazine 100 mg/kg/10 mg/kg IP. The mice were imaged with a gamma camera (Transcam, ADAC Laboratories, Milpitas, Calif.) equipped with a pinhole collimator. The images were acquired in a 256×256 matrix for 1000 seconds using a 20% window of 245 KeV photopeak of ^111In.
# [10] = system: hormone refractory prostate cancer; experiment: 111In-DOTA-deJ591 targeting of hormone refractory prostate cancer (single 20 mg dose, imaging); format: in vivo, human
# [11] = system: recurrent, progressing prostate cancer; experiment: Phase I trial of four weekly doses of 111In-DOTA-deJ591; set-up: species or system human; settings: in vivo
# Description: Patients with recurrent, progressing prostate cancer received four weekly doses of ^111In-DOTA-deJ591. Doses were escalated in cohorts of three patients and ranged from 62.5-500 mg/m2 (total). […] After the first dose, patients were imaged on the day of injection (day 0) and days 1, 2, 4 and 7.
# Serum PK, immune reaction and toxicity were evaluated after each dose for a minimum of 12 weeks.
# [12] = system: prostate tissue; experiment: Immunohistochemistry of DOTA conjugated deJ591
# Description: Immunohistochemistry was performed on the DOTA conjugated, partially purified, bulk intermediate deJ591.
# [13] = 14.5 mg/kg, 7 and 14 day dosing interval
compound,measurement,setting,value
"COc1cc2cc(c1Cl)N(C)C(=O)C[C@H](OC(=O)[C@H](C)N(C)C(C)=O)[C@]1(C)O[C@H]1[C@H](C)[C@@H]1C[C@@](O)(NC(=O)O1)[C@H](OC)/C=C/C=C(\C)C2 [Maytansine, reference compound]",Tumor Growth Delay,"[1]; 240 μg/kg (240 μg/kg DM1-equivalents), qdX5, IV, Comparison I",17.7 days
^131I-J591: murine mAb J591 labeled with 131I iodine,"binding pattern, ex vivo autoradiography",[2]; incubated directly on the tissue section,homogeneous binding pattern
same,adverse events related to the murine antibody,[3]; 33 patients,Only one patient had an adverse event related to the murine antibody
same,positive monoclonal antibody scans among patients with positive soft tissue (CT scans),[3]; eight out of nine,about 90%
same,human anti-murine antibody (HAMA) response,"[3]; human, in vivo",Eight out of sixteen evaluable patients
same,patients in whom known sites of prostate cancer metastases can be imaged,[3]; patients with disease sites imaged by conventional studies,approximately 80%
same,positive monoclonal antibody scans among patients with positive bone scans,[3]; twenty-four out of twenty-seven,about 90%
^131I-deJ591,tumor uptake,[4],0.55±0.03 % ID/g
same,tumor uptake,[5],0.66±0.07 % ID/g
J591: murine monoclonal antibody to the extracellular domain of human PSMA; hybridoma ATCC HB-12126,kinetics of blood clearance,[6],faster compared to 7E11
same,intra-tumoral distribution pattern,"[2]; 131I-labeled, 4 to 6 days after intravenous injection",distinct preferential accumulation in areas of viable tumor
deJ591-DM1: deJ591 conjugated via SPP disulfide linker to the maytansinoid cytotoxin DM1,resumption of normal growth kinetics after the last dose,[1]; [13],approximately 30 days
same,tumor growth,[1]; [13],apparent block in tumor growth
same,suppression of tumor growth following the last administered dose,"[1]; 14.5 mg/kg, every three days for 5 doses, IV",approximately 20 days
same,"Efficacious dosage in SCID mouse xenografts, DM1-Equivalents received","[1]; SCID mouse xenografts, DM1-equivalents",˜0.72 mg/m^2
same,tumor growth inhibitory effect,"[1]; doses and schedules of Comparison I, non-curative",substantial tumor growth inhibitory effect
same,effect on large tumors (500 to 2000 mm^3),"[1]; second course, 12.93 mg/kg",potent regressions in large tumors
same,TGD compared to DM1 at equivalent dose and schedule,"[7]; androgen-intact mice, q3d schedule",better TGD
same,dose-limiting toxicity,[8]; highest dose level 343 mg/m^2,"Only one DLT, an uncomplicated febrile neutropenia"
same,tumor response,"[8]; one patient, 264 mg/m^2",PR by RECIST criteria
^111In-DOTA-deJ591,tumor accumulation on serial gamma camera images,[9],intense tumor accumulation
same,Plasma clearance (T1/2),[10]; 20 mg deJ591,34 ± 5 h
same,Liver uptake,[10]; day 6,27±1.7%
same,accumulation in the prostate gland,[10]; patients with intact but irradiated prostate,generally minimal
same,absorbed dose by the liver,[10]; with 111In,2.8±0.25 rads/mCi
same,mAb targeting to non-prostate cancer sites,[11],No mAb targeting to non-prostate cancer sites was noted
MLN2704,Tumor Growth Delay,"[7]; Castrate mice, 22RV1 xenograft, 240 μg/kg DM1-equivalents, q7dX5",21.4 days
DOTA-deJ591,tissue specificity by immunohistochemistry,[12],specific to prostate tissue
same,reactivity by immunohistochemistry,[12]; compared with naked deJ591,equivalent to the naked deJ591 antibody
